According to the supplement of paper PMC10307832:

How the values were obtained:
Assay in all cases: relative viability (nuclei count vs DMSO), 5 days (fraction); higher = more cells survive
[1] = test system: NCI-H1993
How it was run: (§1)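 Lung cancer cell lines, seeded in 1536-well plates, were treated the following day by pin tool with a single drug or with five library-drug doses (not always all listed) in √10 steps on top of a fixed anchor-drug dose. Cells were fixed and nuclei stained in one step after 5 days, and nuclei were counted. Relative viability is the nuclei count for treated wells divided by that for vehicle wells, reported as medians of duplicate plates.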

[2] = test system: HARA
How it was run: as §1

[3] = test system: COR-L 105
How it was run: as §1

[4] = test system: NCI-H2087
How it was run: as §1

[5] = test system: LU99A
How it was run: as §1

[6] = test system: HOP-62
How it was run: as §1

[7] = test system: NCI-H1395
How it was run: as §1

[8] = test system: RERF-LC-KJ
How it was run: as §1

[9] = test system: SW 900
How it was run: as §1

[10] = test system: NCI-H2126
How it was run: as §1

[11] = test system: EMC-BAC-2
How it was run: as §1

[12] = test system: LC-2-ad
How it was run: as §1

[13] = test system: NCI-H650
How it was run: as §1

[14] = test system: SK-MES-1
How it was run: as §1

[15] = test system: LOU-NH91
How it was run: as §1

[16] = test system: 201T
How it was run: as §1

[17] = test system: LXF-289
How it was run: as §1

[18] = test system: HCC-78
How it was run: as §1

[19] = test system: NCI-H2170
How it was run: as §1

[20] = test system: H3255
How it was run: as §1

[21] = test system: BEN
How it was run: as §1

[22] = test system: UMC-11
How it was run: as §1

`Cc1cn(-c2cc(NC(=O)c3ccc(C)c(Nc4nccc(-c5cccnc5)n4)c3)cc(C(F)(F)F)c2)cn1` [Nilotinib] + O=C(CCCCCCC(=O)Nc1ccccc1)NO [Vorinostat] (partner 1 µM) gave a relative viability ([1]; first compound 0.001 µM) of 0.6, a relative viability ([1]; first compound 0.003162 µM) of 0.655 and a relative viability ([1]; first compound 0.01 µM) of 0.843. It also gave a relative viability ([1]; first compound 0.03162 µM) of 0.722, a relative viability ([1]; first compound 0.1 µM) of 0.497 and a relative viability ([2]; first compound 0.001 µM) of 0.544. The relative viability ([2]; first compound 0.003162 µM) was 0.668, the relative viability ([2]; first compound 0.01 µM) was 0.507 and the relative viability ([2]; first compound 0.03162 µM) was 0.401. For the same compound, the relative viability ([2]; first compound 0.1 µM) was 0.423, the relative viability ([3]; first compound 0.001 µM) was 0.744 and the relative viability ([3]; first compound 0.003162 µM) was 1.09. The relative viability ([3]; first compound 0.01 µM) was 0.81, the relative viability ([3]; first compound 0.03162 µM) was 0.76 and the relative viability ([3]; first compound 0.1 µM) was 0.672. The relative viability ([4]; first compound 0.001 µM) was 0.707, the relative viability ([4]; first compound 0.003162 µM) was 0.709 and the relative viability ([4]; first compound 0.01 µM) was 1.23. The relative viability ([4]; first compound 0.03162 µM) was 0.567, the relative viability ([4]; first compound 0.1 µM) was 0.543 and the relative viability ([5]; first compound 0.001 µM) was 0.429. It also gave a relative viability ([5]; first compound 0.003162 µM) of 0.506, a relative viability ([5]; first compound 0.01 µM) of 0.468 and a relative viability ([5]; first compound 0.03162 µM) of 0.411. For the same compound, the relative viability ([5]; first compound 0.1 µM) was 0.353, the relative viability ([6]; first compound 0.001 µM) was 0.625 and the relative viability ([6]; first compound 0.003162 µM) was 0.567. The relative viability ([6]; first compound 0.01 µM) was 0.631, the relative viability ([6]; first compound 0.03162 µM) was 0.479 and the relative viability ([7]; first compound 0.001 µM) was 0.728. It also gave a relative viability ([7]; first compound 0.01 µM) of 0.616, a relative viability ([7]; first compound 0.03162 µM) of 0.59 and a relative viability ([7]; first compound 0.1 µM) of 0.473. For the same compound, the relative viability ([8]; first compound 0.001 µM) was 0.624, the relative viability ([8]; first compound 0.003162 µM) was 0.698 and the relative viability ([8]; first compound 0.01 µM) was 0.734. It also gave a relative viability ([8]; first compound 0.03162 µM) of 0.568, a relative viability ([8]; first compound 0.1 µM) of 0.453 and a relative viability ([9]; first compound 0.003162 µM) of 0.456. It also gave a relative viability ([9]; first compound 0.01 µM) of 0.624, a relative viability ([9]; first compound 0.03162 µM) of 0.216 and a relative viability ([9]; first compound 0.1 µM) of 0.368. For the same compound, the relative viability ([10]; first compound 0.001 µM) was 0.754, the relative viability ([10]; first compound 0.003162 µM) was 0.888 and the relative viability ([10]; first compound 0.01 µM) was 0.864. The relative viability ([10]; first compound 0.03162 µM) was 0.764, the relative viability ([10]; first compound 0.1 µM) was 0.476 and the relative viability ([11]; first compound 0.001 µM) was 0.369. For the same compound, the relative viability ([11]; first compound 0.003162 µM) was 0.339, the relative viability ([11]; first compound 0.01 µM) was 0.429 and the relative viability ([11]; first compound 0.03162 µM) was 0.319. It also gave a relative viability ([11]; first compound 0.1 µM) of 0.33, a relative viability ([12]; first compound 0.001 µM) of 0.644 and a relative viability ([12]; first compound 0.003162 µM) of 0.851. For the same compound, the relative viability ([12]; first compound 0.01 µM) was 0.772, the relative viability ([12]; first compound 0.03162 µM) was 0.545 and the relative viability ([12]; first compound 0.1 µM) was 0.318. The relative viability ([13]; first compound 0.001 µM) was 0.392, the relative viability ([13]; first compound 0.003162 µM) was 0.437 and the relative viability ([13]; first compound 0.01 µM) was 0.445. For the same compound, the relative viability ([13]; first compound 0.03162 µM) was 0.407, the relative viability ([13]; first compound 0.1 µM) was 0.377 and the relative viability ([14]; first compound 0.001 µM) was 1.12. For the same compound, the relative viability ([14]; first compound 0.003162 µM) was 0.623, the relative viability ([14]; first compound 0.01 µM) was 1.33 and the relative viability ([14]; first compound 0.03162 µM) was 0.936. It also gave a relative viability ([14]; first compound 0.1 µM) of 0.618, a relative viability ([15]; first compound 0.001 µM) of 1.03 and a relative viability ([15]; first compound 0.003162 µM) of 0.936. For the same compound, the relative viability ([15]; first compound 0.01 µM) was 0.946, the relative viability ([15]; first compound 0.03162 µM) was 0.898 and the relative viability ([15]; first compound 0.1 µM) was 0.882. The relative viability ([16]; first compound 0.001 µM) was 0.931, the relative viability ([16]; first compound 0.003162 µM) was 1.19 and the relative viability ([16]; first compound 0.01 µM) was 1.22. It also gave a relative viability ([16]; first compound 0.1 µM) of 0.28, a relative viability ([17]; first compound 0.001 µM) of 0.693 and a relative viability ([17]; first compound 0.003162 µM) of 0.994. The relative viability ([17]; first compound 0.01 µM) was 0.882, the relative viability ([17]; first compound 0.03162 µM) was 0.869 and the relative viability ([17]; first compound 0.1 µM) was 0.534. For the same compound, the relative viability ([18]; first compound 0.001 µM) was 0.483, the relative viability ([18]; first compound 0.003162 µM) was 0.512 and the relative viability ([18]; first compound 0.01 µM) was 0.553. It also gave a relative viability ([18]; first compound 0.03162 µM) of 0.4, a relative viability ([18]; first compound 0.1 µM) of 0.565 and a relative viability ([19]; first compound 0.001 µM) of 0.818. For the same compound, the relative viability ([19]; first compound 0.003162 µM) was 1.16, the relative viability ([19]; first compound 0.01 µM) was 1.05 and the relative viability ([19]; first compound 0.03162 µM) was 0.622. For the same compound, the relative viability ([19]; first compound 0.1 µM) was 0.877, the relative viability ([20]; first compound 0.001 µM) was 0.743 and the relative viability ([20]; first compound 0.003162 µM) was 0.706. It also gave a relative viability ([20]; first compound 0.03162 µM) of 0.764, a relative viability ([20]; first compound 0.1 µM) of 0.429 and a relative viability ([21]; first compound 0.001 µM) of 0.532. For the same compound, the relative viability ([21]; first compound 0.003162 µM) was 0.556, the relative viability ([21]; first compound 0.01 µM) was 0.723 and the relative viability ([21]; first compound 0.03162 µM) was 0.642. The relative viability ([21]; first compound 0.1 µM) was 0.574, the relative viability ([22]; first compound 0.001 µM) was 0.359 and the relative viability ([22]; first compound 0.003162 µM) was 0.398. For the same compound, the relative viability ([22]; first compound 0.01 µM) was 0.346, the relative viability ([22]; first compound 0.03162 µM) was 0.336 and the relative viability ([22]; first compound 0.1 µM) was 0.458.
